Test results published in patent EP3892265A1, “COMPOSITION FOR SUPPRESSING BLOOD PRESSURE ELEVATION AND METHOD FOR SUPPRESSING BLOOD PRESSURE ELEVATION” (Suntory Holdings Limited, priority 2018, dated 2020).

Tests used:
[1] = tested on: human umbilical vein endothelial cells (HUVECs, Lonza); assay: Promotion of nitric oxide (NO) production from vascular endothelial cells, DAF-2 fluorescence; type: cell-based; details: 24 hours, relative to control group; for Relative amount of NO released (%) Average: n = 5
Procedure: The effect of xanthohumol (produced by Gifu Shellac Manufacturing Co., Ltd.) in promoting nitric oxide (NO) production from vascular endothelial cells was evaluated by the following procedure.
Specifically, human umbilical vein endothelial cells (HUVECs, Lonza) were treated with xanthohumol for 24 hours, and the amount of nitric oxide (NO) production was measured (n = 5).
HUVECs in a medium (EGM-2, Lonza) were seeded onto a 96-well plate at 10000 cells/0.1 mL/well, and cultured in a CO2 incubator. On the following day, the medium of a xanthohumol-added group was replaced by a medium to which xanthohumol was added; the control group was transferred to a control medium; and the positive control group was transferred to a medium containing positive control (Lovastatin, 10 µM) . Then, these groups were cultured in a CO2 incubator for additional 24 hours.
The medium to which xanthohumol was added was prepared by dissolving xanthohumol in dimethyl sulfoxide (DMSO) and adding the solution to a medium such that the final concentration of xanthohumol was 1 µg/mL, 3 µg/mL, or 10 µg/mL. The control medium was prepared by adding DMSO to a medium to the same concentration as that in the xanthohumol-added group. The medium containing positive control was prepared by adding a solution of lovastatin in DMSO to a medium such that the final concentration of lovastatin (produced by FUJIFILM Wako Pure Chemical Corporation) was 10 µM.
After culturing for 24 hours, diaminofluorescein-2 diacetate (DAF-2, Goryo Chemical, Inc.) was added to each medium to a final concentration of 10 µM, followed by incubation in a CO2 incubator for two hours. Subsequently, the culture supernatant was transferred to a 96-well plate (black plate), and the fluorescence intensity (ex. 495 nm, em. 515 nm) was measured. The fluorescence intensity relative to the fluorescence intensity of the control group was determined as the relative amount of NO released. Significant difference was tested between the groups (control group vs. xanthohumol-added group) by Student's t-test (significant level: p < 0.05). […]

[2] = target: T1, angiotensin-converting enzyme (ACE) (Homo sapiens, UniProt P12821); assay: ACE inhibitory activity measured with ACE Kit-WST (Dojindo Laboratories); type: biochemical; details: n = 4
T1 construct: purchased Dojindo Laboratories
T1 sequence (P12821 30-1306, species assumed): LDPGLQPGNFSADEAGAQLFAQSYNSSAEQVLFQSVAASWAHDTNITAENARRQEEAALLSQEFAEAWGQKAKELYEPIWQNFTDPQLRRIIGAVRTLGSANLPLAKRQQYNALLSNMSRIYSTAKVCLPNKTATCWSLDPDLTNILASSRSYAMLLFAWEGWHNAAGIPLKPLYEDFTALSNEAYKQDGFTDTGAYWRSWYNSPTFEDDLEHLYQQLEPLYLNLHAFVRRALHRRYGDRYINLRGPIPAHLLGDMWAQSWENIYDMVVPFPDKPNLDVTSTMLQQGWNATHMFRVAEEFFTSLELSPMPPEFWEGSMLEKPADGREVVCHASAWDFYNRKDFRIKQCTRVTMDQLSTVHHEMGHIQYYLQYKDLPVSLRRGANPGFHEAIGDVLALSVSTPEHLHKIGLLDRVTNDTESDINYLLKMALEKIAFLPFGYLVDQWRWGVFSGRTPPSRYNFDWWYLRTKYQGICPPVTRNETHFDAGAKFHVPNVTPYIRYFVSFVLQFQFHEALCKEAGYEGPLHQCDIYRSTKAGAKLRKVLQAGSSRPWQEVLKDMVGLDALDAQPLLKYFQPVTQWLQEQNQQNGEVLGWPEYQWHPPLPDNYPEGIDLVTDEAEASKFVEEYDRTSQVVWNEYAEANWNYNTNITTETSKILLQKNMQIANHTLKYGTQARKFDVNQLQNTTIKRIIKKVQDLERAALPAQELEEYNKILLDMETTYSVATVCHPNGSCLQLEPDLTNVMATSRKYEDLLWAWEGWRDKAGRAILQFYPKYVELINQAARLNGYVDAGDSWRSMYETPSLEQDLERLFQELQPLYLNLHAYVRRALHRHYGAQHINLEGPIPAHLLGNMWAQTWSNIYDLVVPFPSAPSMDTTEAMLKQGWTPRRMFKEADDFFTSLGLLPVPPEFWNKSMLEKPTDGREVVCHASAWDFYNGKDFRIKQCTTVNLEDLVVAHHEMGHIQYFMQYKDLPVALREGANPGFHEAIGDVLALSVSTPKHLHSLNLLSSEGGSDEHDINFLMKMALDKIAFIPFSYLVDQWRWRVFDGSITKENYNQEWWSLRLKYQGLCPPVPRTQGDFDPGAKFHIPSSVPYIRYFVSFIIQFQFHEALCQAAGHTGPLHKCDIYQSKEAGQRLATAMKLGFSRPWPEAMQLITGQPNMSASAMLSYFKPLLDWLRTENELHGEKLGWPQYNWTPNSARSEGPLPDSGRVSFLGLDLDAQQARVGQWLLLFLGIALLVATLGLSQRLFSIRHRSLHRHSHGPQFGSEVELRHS
Procedure: The angiotensin-converting enzyme (ACE) inhibitory effect of xanthohumol was evaluated by the following procedure.
Specifically, the ACE inhibitory activity was measured for the case where xanthohumol (produced by Gifu Shellac Manufacturing Co., Ltd.) was added as a test substance (n = 4 per level), using an ACE Kit-WST (Dojindo Laboratories) according to the instructions accompanying the kit.
A level with addition of distilled water instead of xanthohumol was set as a control group.
A level with no addition of xanthohumol which was measured in an ACE (enzyme)-free reaction system was set as an enzyme-free group.
The ACE inhibitory activity (%) of the test substance was calculated using the following formula 1. Significant difference was tested between the groups (control group vs. test substance-added group) by Student's t-test (significant level: p < 0.05). ACE inhibitory activity(%); = 100 × ((absorbanceat450nmofcontrolgroup)−; (absorbance at 450 nm in test substance−added; group))/((absorbanceat450nmofcontrolgroup)−; (absorbanceat450nmofenzyme-freegroup)) [formula]

[3] = Xanthohumol concentration 3 µg/mL
[4] = Xanthohumol concentration 10 µg/mL

SMILES	Relative amount of NO released (%) Average ([1]; Xanthohumol concentration 1 µg/mL)	Relative amount of NO released (%) Average [1, 3]	Relative amount of NO released (%) Average [1, 4]	inhibition at 3 µg/mL [2, 3]	inhibition at 10 µg/mL [2, 4]	inhibition at 30 µg/mL ([2]; Xanthohumol concentration 30 µg/mL)	relative amount of NO released ([1]; Lovastatin 10 µM, average ± standard error)
COc1cc(O)c(CC=C(C)C)c(O)c1C(=O)/C=C/c1ccc(O)cc1 [Xanthohumol]	108.3%	124.8%	147.5%	3.33%	15.8%	19.5%	–
CC[C@H](C)C(=O)O[C@H]1C[C@@H](C)C=C2C=C[C@H](C)[C@H](CC[C@@H]3C[C@@H](O)CC(=O)O3)[C@H]21 [positive control, Lovastatin, reference compound]	–	–	–	–	–	–	122.8 ± 2.7%
